Key:
mongrel adult dogs [1] = assay: Effects on arterial mean blood pressure (thoractomized anesthetized dogs, i.v.); type: in vivo, dog
Experimental: (§1) All experiments were conducted on male and female thoractomized mongrel adult dogs weighing about 10 Kg under anesthesia with pentobarbital sodium.
(§2) Arterial blood pressure was measured by pressure transducer (Nippon Koden MPU-0.5) connected with the cannula inserted from exposed carotid artery into aorta. Aortic blood flow was determined by means of electromagnetic flow meter (Nippon Koden MF-5) mounted at an origin of aorta. Coronary sinus out flow and coronary sinus oxygen tension were assessed by means of electromagnetic flow meter (Nippon Koden MF-5) and Po2 Macro electrode (Beckmann Moder 160-C), respectively, using Morawitz cannulization technique. Heart rate was measured by cardiotachometer (Nippon Koden RT-2) synchronized with systolic blood pressure of aorta.

mongrel adult dogs [2] = assay: Effects on aortic blood flow (thoractomized anesthetized dogs, i.v.); type: in vivo, dog
Experimental: as §1, §2

mongrel adult dogs [3] = assay: Effects on coronary sinus out flow (thoractomized anesthetized dogs, i.v.); type: in vivo, dog
Experimental: as §1, §2

mongrel adult dogs [4] = assay: Effects on coronary sinus oxygen tension (thoractomized anesthetized dogs, i.v.); type: in vivo, dog
Experimental: as §1, §2

mongrel adult dogs [5] = assay: Effects on heart rate (thoractomized anesthetized dogs, i.v.); type: in vivo, dog
Experimental: as §1, §2

mongrel adult dogs [6] = assay: Effects on the work done by the left ventricle (thoractomized anesthetized dogs, i.v.); type: in vivo, dog
Experimental: as §1, §2
The work done by the left ventricle is calculated according to the following equation: […]

[7] = Acute toxicity (LD50; per os, mice); type: in vivo; conditions: mouse, in vivo, po, dd-0train male mice
Experimental: (§3) 7. Acute Toxicity (See Table 7) Acute toxicity (LD50; per os, mice) was measured in dd-0train male mice.

dd-0train male mice = assay: Acute toxicity (LD50; per os, mice); type: in vivo
Experimental: as §3

CCOC(=O)N1CCN(C(C#N)c2ccc(OC)c(OC)c2)CC1 (stereo not drawn) [Compound B-01, N-(α-cyano-3,4-dimethoxybenzyl)-N'-ethoxycarbonyl piperazine]
Changes(%) of basal values, arterial mean blood pressure (mongrel adult dogs [1]; i.v. 2.0 mg/Kg, 15 min): -4.5% | Changes(%) of basal values, arterial mean blood pressure (mongrel adult dogs [1]; i.v. 2.0 mg/Kg, 25 min): -4.0% | Changes(%) of basal values, arterial mean blood pressure (mongrel adult dogs [1]; i.v. 6.0 mg/Kg, 15 min): -6.3% | Changes(%) of basal values, arterial mean blood pressure (mongrel adult dogs [1]; i.v. 6.0 mg/Kg, 25 min): -3.0% | Changes(%) of basal values, arterial mean blood pressure (mongrel adult dogs [1]; i.v. 20.0 mg/Kg, 15 min): -17.7% | Changes(%) of basal values, arterial mean blood pressure (mongrel adult dogs [1]; i.v. 20.0 mg/Kg, 25 min): -17.4% | Duration of hypotensive effect (in words) (mongrel adult dogs [1]; i.v., dogs): longer duration | Effect on arterial mean blood pressure (in words) (mongrel adult dogs [1]; i.v., dogs): hypotensive effects | Changes(%) of basal values, aortic blood flow (mongrel adult dogs [2]; i.v. 2.0 mg/Kg, 15 min): +2.0% | Changes(%) of basal values, aortic blood flow (mongrel adult dogs [2]; i.v. 2.0 mg/Kg, 25 min): +1.0% | Changes(%) of basal values, aortic blood flow (mongrel adult dogs [2]; i.v. 6.0 mg/Kg, 15 min): +0.1% | Changes(%) of basal values, aortic blood flow (mongrel adult dogs [2]; i.v. 6.0 mg/Kg, 25 min): +1.0% | Changes(%) of basal values, aortic blood flow (mongrel adult dogs [2]; i.v. 20.0 mg/Kg, 15 min): +3.6% | Changes(%) of basal values, aortic blood flow (mongrel adult dogs [2]; i.v. 20.0 mg/Kg, 25 min): +1.6% | Increase of aortic blood flow (mongrel adult dogs [2]; i.v., dogs): 2-8% | Later effect on aortic blood flow / its duration (in words) (mongrel adult dogs [2]; i.v., dogs): longer duration | Effect on aortic blood flow immediately after administration (in words) (mongrel adult dogs [2]; i.v., dogs, immediately): no decrease in blood flow immediately after medication | Changes(%) of basal values, coronery sinus out flow (mongrel adult dogs [3]; i.v. 2.0 mg/Kg, 15 min): +4.4% | Changes(%) of basal values, coronery sinus out flow (mongrel adult dogs [3]; i.v. 2.0 mg/Kg, 25 min): +3.0% | Changes(%) of basal values, coronery sinus out flow (mongrel adult dogs [3]; i.v. 6.0 mg/Kg, 15 min): +10.9% | Changes(%) of basal values, coronery sinus out flow (mongrel adult dogs [3]; i.v. 6.0 mg/Kg, 25 min): +8.0% | Changes(%) of basal values, coronery sinus out flow (mongrel adult dogs [3]; i.v. 20.0 mg/Kg, 15 min): +38.2% | Changes(%) of basal values, coronery sinus out flow (mongrel adult dogs [3]; i.v. 20.0 mg/Kg, 25 min): +20.3% | Dose dependence and duration of effect on coronary sinus out flow (in words) (mongrel adult dogs [3]; i.v., dogs): proportioned to doses and of longer duration | Effect on coronary sinus out flow (in words) (mongrel adult dogs [3]; i.v., dogs): marked increasing effect on coronary sinus out flow | Changes(%) of basal values, coronary sinus oxygen tension (mongrel adult dogs [4]; i.v. 2.0 mg/Kg, 15 min): +12.0% | Changes(%) of basal values, coronary sinus oxygen tension (mongrel adult dogs [4]; i.v. 2.0 mg/Kg, 25 min): +12.5% | Changes(%) of basal values, coronary sinus oxygen tension (mongrel adult dogs [4]; i.v. 6.0 mg/Kg, 10 min): +3.0% | Changes(%) of basal values, coronary sinus oxygen tension (mongrel adult dogs [4]; i.v. 6.0 mg/Kg, 15 min): +25.5% | Changes(%) of basal values, coronary sinus oxygen tension (mongrel adult dogs [4]; i.v. 6.0 mg/Kg, 25 min): +16.2% | Changes(%) of basal values, coronary sinus oxygen tension (mongrel adult dogs [4]; i.v. 20.0 mg/Kg, 5 min): +89.0% | Changes(%) of basal values, coronary sinus oxygen tension (mongrel adult dogs [4]; i.v. 20.0 mg/Kg, 15 min): +90.1% | Changes(%) of basal values, coronary sinus oxygen tension (mongrel adult dogs [4]; i.v. 20.0 mg/Kg, 25 min): +63.0% | Duration of effect on coronary sinus oxygen tension (in words) (mongrel adult dogs [4]; i.v., dogs): proportioned to an increase in coronary sinus out flow and of longer duration | Effect on coronary sinus oxygen tension (in words) (mongrel adult dogs [4]; i.v., dogs): significant increase in coronary sinus oxygen tension | Changes(%) of basal values, heart rate (mongrel adult dogs [5]; i.v. 2.0 mg/Kg, 15 min): 0% | Changes(%) of basal values, heart rate (mongrel adult dogs [5]; i.v. 2.0 mg/Kg, 25 min): 0% | Changes(%) of basal values, heart rate (mongrel adult dogs [5]; i.v. 6.0 mg/Kg, 15 min): +0.6% | Changes(%) of basal values, heart rate (mongrel adult dogs [5]; i.v. 6.0 mg/Kg, 25 min): +1.0% | Changes(%) of basal values, heart rate (mongrel adult dogs [5]; i.v. 20.0 mg/Kg, 15 min): -2.6% | Changes(%) of basal values, heart rate (mongrel adult dogs [5]; i.v. 20.0 mg/Kg, 25 min): -6.3% | Effect on heart rate (in words) (mongrel adult dogs [5]; i.v., dogs): sight negative chromotropic effect | Changes(%) of basal values, work of left ventricle (mongrel adult dogs [6]; i.v. 2.0 mg/Kg, 1 min): +2.7% | Changes(%) of basal values, work of left ventricle (mongrel adult dogs [6]; i.v. 2.0 mg/Kg, 5 min): +0.8% | Changes(%) of basal values, work of left ventricle (mongrel adult dogs [6]; i.v. 2.0 mg/Kg, 10 min): -2.0% | Changes(%) of basal values, work of left ventricle (mongrel adult dogs [6]; i.v. 2.0 mg/Kg, 15 min): -2.6% | Changes(%) of basal values, work of left ventricle (mongrel adult dogs [6]; i.v. 2.0 mg/Kg, 20 min): -2.9% | Changes(%) of basal values, work of left ventricle (mongrel adult dogs [6]; i.v. 2.0 mg/Kg, 25 min): -3.1% | Changes(%) of basal values, work of left ventricle (mongrel adult dogs [6]; i.v. 2.0 mg/Kg, 30 min): -3.6% | Changes(%) of basal values, work of left ventricle (mongrel adult dogs [6]; i.v. 2.0 mg/Kg, imm.): -3.6% | Changes(%) of basal values, work of left ventricle (mongrel adult dogs [6]; i.v. 6.0 mg/Kg, 1 min): +2.3% | Changes(%) of basal values, work of left ventricle (mongrel adult dogs [6]; i.v. 6.0 mg/Kg, 5 min): -1.7% | Changes(%) of basal values, work of left ventricle (mongrel adult dogs [6]; i.v. 6.0 mg/Kg, 10 min): -5.9% | Changes(%) of basal values, work of left ventricle (mongrel adult dogs [6]; i.v. 6.0 mg/Kg, 15 min): -8.3% | Changes(%) of basal values, work of left ventricle (mongrel adult dogs [6]; i.v. 6.0 mg/Kg, 20 min): -5.3% | Changes(%) of basal values, work of left ventricle (mongrel adult dogs [6]; i.v. 6.0 mg/Kg, 25 min): -2.0% | Changes(%) of basal values, work of left ventricle (mongrel adult dogs [6]; i.v. 6.0 mg/Kg, 30 min): -2.8% | Changes(%) of basal values, work of left ventricle (mongrel adult dogs [6]; i.v. 6.0 mg/Kg, imm.): -0.1% | Changes(%) of basal values, work of left ventricle (mongrel adult dogs [6]; i.v. 20.0 mg/Kg, 1 min): -10.9% | Changes(%) of basal values, work of left ventricle (mongrel adult dogs [6]; i.v. 20.0 mg/Kg, 5 min): -8.4% | Changes(%) of basal values, work of left ventricle (mongrel adult dogs [6]; i.v. 20.0 mg/Kg, 10 min): -9.2% | Changes(%) of basal values, work of left ventricle (mongrel adult dogs [6]; i.v. 20.0 mg/Kg, 15 min): -14.8% | Changes(%) of basal values, work of left ventricle (mongrel adult dogs [6]; i.v. 20.0 mg/Kg, 20 min): -14.3% | Changes(%) of basal values, work of left ventricle (mongrel adult dogs [6]; i.v. 20.0 mg/Kg, 25 min): -16.1% | Changes(%) of basal values, work of left ventricle (mongrel adult dogs [6]; i.v. 20.0 mg/Kg, 30 min): -14.1% | Changes(%) of basal values, work of left ventricle (mongrel adult dogs [6]; i.v. 20.0 mg/Kg, imm.): -8.5% | Duration of effect on the work of the left ventricle (in words) (mongrel adult dogs [6]; i.v., dogs): longer duration | Effect on the work of the left ventricle (in words) (mongrel adult dogs [6]; i.v., dogs): decrease in the work of the left ventricle | LD50 [7]: 2200 mg/kg | LD50 (dd-0train male mice; dd-0train male mice): 2200 mg/kg | Acute toxicity relative to Vastarel F (in words) (dd-0train male mice; mice): significantly less toxicity than that of Vastarel F

Reference: patent US3948899A, “α-Cyanobenzylpiperazines and a process for producing the same” (Fuji Chemical Industry Co., Ltd., priority 1973, dated 1976)
